Test results as given in ChEMBL document CHEMBL4808230, “Neuroprotective effects of 2-heptyl-3-hydroxy-4-quinolone in HT22 mouse hippocampal neuronal cells” (2021).
The source made the active and inactive calls. The calls are words filed in the database; no cut-off is given here.

Assays:
HT-22 [1] = assay: Neuroprotective activity against glutamate-induced cytotoxicity in mouse HT-22 cells assessed as increase in cell viability at 0.6 uM in presence of glutamate by calcein-AM dye/propidium iodide staining based microscopic analysis; type: functional
HT-22 [2] = assay: Neuroprotective activity against glutamate-induced cytotoxicity in mouse HT-22 cells assessed as increase in cell viability at 1.85 to 5.5 uM in presence of glutamate by calcein-AM dye/propidium iodide staining based microscopic analysis; type: functional; settings: dose 1.85-5.5 µM
HT-22 [3] = assay: Inhibition of glutamate-induced oxidative stress in mouse HT-22 cells assessed as reduction in intracellular ROS accumulation at 0.2 to 1.8 uM in presence of glutamate by FACS analysis; type: functional, cell-based; settings: dose 0.2-1.8 µM
HT-22 [4] = assay: Inhibition of glutamate-induced oxidative stress in mouse HT-22 cells assessed as reduction in intracellular ROS accumulation at 0.2 to 3.6 uM in presence of glutamate by DCF-DA staining based fluorescence microscopic analysis; type: functional, cell-based; settings: dose 0.2-3.6 µM
HT-22 [5] = assay: Inhibition of glutamate-induced Ca2+ influx in mouse HT-22 cells assessed as reduction in intracellular Ca2+ concentration in presence of glutamate by Fluo3-AM staining based fluorescence microscopic method; type: functional, cell-based; settings: dose 0.6-1.8 µM
[6] = biological target: c-Jun N-terminal kinase (Mus musculus) (UniProt Q91Y86+Q9WTU6+Q61831); assay: Inhibition of glutamate-induced JNK activation in mouse HT-22 cells assessed as reduction in phosphorylated JNK protein level at 1 to 10 uM in presence of glutamate by Western blot analysis; type: cell-based; settings: dose 1-10 µM
HT-22 [7] = assay: Inhibition of glutamate-induced ERK activation in mouse HT-22 cells assessed as reduction in phosphorylated ERK protein level at 1 to 10 uM in presence of glutamate by Western blot analysis; type: cell-based; settings: dose 1-10 µM
[8] = biological target: MAP kinase p38 (Mus musculus) (UniProt P47811+O08911+Q9WUI1+Q9Z1B7); assay: Inhibition of glutamate-induced p38 MAPK activation in mouse HT-22 cells assessed as reduction in phosphorylated p38 MAPK protein level at 1 to 10 uM in presence of glutamate by Western blot analysis; type: cell-based; settings: dose 1-10 µM
HT-22 [9] = assay: Inhibition of glutamate-induced apoptosis in mouse HT-22 cells assessed as reduction in Bax protein level at 1 to 10 uM incubated for 10 hrs in presence of glutamate by Western blot analysis; type: functional, cell-based; settings: dose 1-10 µM
HT-22 [10] = assay: Inhibition of glutamate-induced apoptosis in mouse HT-22 cells assessed as increase in Bcl2 protein level at 1 to 10 uM incubated for 10 hrs in presence of glutamate by Western blot analysis; type: functional, cell-based; settings: dose 1-10 µM
HT-22 [11] = assay: Inhibition of glutamate-induced AIF nuclear translocation in mouse HT-22 cells assessed as decrease in translocation of AIF from mitochondria to nucleus at 1 to 10 uM in presence of glutamate by Western blot analysis; type: functional, cell-based; settings: dose 1-10 µM
HT-22 [12] = assay: Inhibition of glutamate-induced apoptosis in mouse HT-22 cells assessed as early apoptotic cells at 0.2 uM pretreated with glutamate for 2 hrs followed by incubation with compound for 8 hrs by Annexin-V FITC and propidium iodide staining based flow cytometric analysis (reference value: 71.33%); type: functional; parameters: scale not given: the % may be the effect or the level left
HT-22 [13] = assay: Inhibition of glutamate-induced apoptosis in mouse HT-22 cells assessed as late apoptotic cells at 0.2 uM pretreated with glutamate for 2 hrs followed by incubation with compound for 8 hrs by Annexin-V FITC and propidium iodide staining based flow cytometric analysis (reference value: 6.49%); type: functional; parameters: scale not given: the % may be the effect or the level left
HT-22 [14] = assay: Inhibition of glutamate-induced apoptosis in mouse HT-22 cells assessed as necrotic cells at 0.2 uM pretreated with glutamate for 2 hrs followed by incubation with compound for 8 hrs by Annexin-V FITC and propidium iodide staining based flow cytometric analysis (reference value: 0.79%); type: functional; parameters: scale not given: the % may be the effect or the level left
HT-22 [15] = assay: Inhibition of glutamate-induced apoptosis in mouse HT-22 cells assessed as early apoptotic cells at 1.85 uM pretreated with glutamate for 2 hrs followed by incubation with compound for 8 hrs by Annexin-V FITC and propidium iodide staining based flow cytometric analysis (reference value: 71.33%); type: functional; parameters: scale not given: the % may be the effect or the level left
HT-22 [16] = assay: Inhibition of glutamate-induced apoptosis in mouse HT-22 cells assessed as late apoptotic cells at 1.85 uM pretreated with glutamate for 2 hrs followed by incubation with compound for 8 hrs by Annexin-V FITC and propidium iodide staining based flow cytometric analysis (reference value: 6.49%); type: functional; parameters: scale not given: the % may be the effect or the level left
HT-22 [17] = assay: Inhibition of glutamate-induced apoptosis in mouse HT-22 cells assessed as necrotic cells at 1.85 uM pretreated with glutamate for 2 hrs followed by incubation with compound for 8 hrs by Annexin-V FITC and propidium iodide staining based flow cytometric analysis (reference value: 0.79%); type: functional; parameters: scale not given: the % may be the effect or the level left
HT-22 [18] = assay: Inhibition of glutamate-induced apoptosis in mouse HT-22 cells assessed as viable cells at 1.85 uM pretreated with glutamate for 2 hrs followed by incubation with compound for 8 hrs by Annexin-V FITC and propidium iodide staining based flow cytometric analysis (reference value: 21.39%); type: functional; settings: read-out: Activity
HT-22 [19] = assay: Inhibition of glutamate-induced apoptosis in mouse HT-22 cells assessed as viable cells at 0.2 uM pretreated with glutamate for 2 hrs followed by incubation with compound for 8 hrs by Annexin-V FITC and propidium iodide staining based flow cytometric analysis (reference value: 21.39%); type: functional; settings: read-out: Activity
HT-22 [20] = assay: Neuroprotective activity against glutamate-induced cytotoxicity in mouse HT-22 cells assessed as reduction in cell death and morphological changes at 0.6 to 1.8 uM incubated for 12 hrs in presence of glutamate by phase contrast microscopic analysis; type: functional, cell-based; settings: dose 0.6-1.8 µM
HT-22 [21] = assay: Neuroprotective activity against glutamate-induced cytotoxicity in mouse HT-22 cells assessed as reduction in cell death pretreated with glutamate followed by incubation with compound for 6 hrs and measured at 16 hrs post-glutamate treatment; type: functional, cell-based
HT-22 [22] = assay: Neuroprotective activity against glutamate-induced cytotoxicity in mouse HT-22 cells assessed as reduction in cell death pretreated with glutamate followed by incubation with compound for 8 hrs and measured at 16 hrs post-glutamate treatment; type: functional, cell-based
RGC-5 = assay: Cytoprotective activity against glutamate-induced cytotoxicity in rat RGC-5 cells assessed as reduction in cell death; type: functional, cell-based
[23] = Antioxidant activity assessed as DPPH radical scavenging activity; type: functional
[24] = Inhibition of glutamate-induced Ca2+ influx in mouse HT-22 cells assessed as reduction in intracellular Ca2+ concentration at 0.6 to 1.8 uM in presence of glutamate by Fluo3-AM staining based fluorescence microscopic method relative to control; type: functional; settings: dose 0.6-1.8 µM
HT-22 [25] = assay: Inhibition of glutamate-induced AIF nuclear translocation in mouse HT-22 cells assessed as decrease in translocation of AIF from mitochondria to nucleus in presence of glutamate by immunostaining analysis; type: functional, cell-based

Sequence of c-Jun N-terminal kinase (Mus musculus) (Q61831 whole entry, looked up): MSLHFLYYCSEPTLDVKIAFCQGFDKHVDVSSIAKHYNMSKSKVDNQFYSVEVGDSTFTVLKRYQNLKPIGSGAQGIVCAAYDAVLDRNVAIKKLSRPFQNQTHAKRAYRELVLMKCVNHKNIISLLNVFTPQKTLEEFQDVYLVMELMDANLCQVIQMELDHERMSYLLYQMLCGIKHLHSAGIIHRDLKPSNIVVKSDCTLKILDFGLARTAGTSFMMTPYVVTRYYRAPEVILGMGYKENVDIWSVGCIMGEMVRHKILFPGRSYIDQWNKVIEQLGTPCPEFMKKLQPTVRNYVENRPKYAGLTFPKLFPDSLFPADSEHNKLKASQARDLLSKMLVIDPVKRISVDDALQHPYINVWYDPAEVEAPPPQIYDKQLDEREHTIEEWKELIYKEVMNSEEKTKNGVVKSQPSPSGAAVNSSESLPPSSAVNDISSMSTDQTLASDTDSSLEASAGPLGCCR
Sequence of c-Jun N-terminal kinase (Mus musculus) (Q91Y86 whole entry, looked up): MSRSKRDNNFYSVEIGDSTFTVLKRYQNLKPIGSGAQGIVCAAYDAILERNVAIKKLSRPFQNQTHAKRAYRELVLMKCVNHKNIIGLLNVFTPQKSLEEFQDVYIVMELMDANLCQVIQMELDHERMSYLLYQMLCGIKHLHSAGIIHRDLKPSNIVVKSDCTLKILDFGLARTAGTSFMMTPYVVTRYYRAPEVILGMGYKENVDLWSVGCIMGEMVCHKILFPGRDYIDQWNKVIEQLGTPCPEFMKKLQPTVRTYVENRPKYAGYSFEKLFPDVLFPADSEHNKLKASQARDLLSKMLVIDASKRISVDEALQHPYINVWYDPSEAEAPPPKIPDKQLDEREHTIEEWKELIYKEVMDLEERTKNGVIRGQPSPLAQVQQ
Sequence of c-Jun N-terminal kinase (Mus musculus) (Q9WTU6 whole entry, looked up): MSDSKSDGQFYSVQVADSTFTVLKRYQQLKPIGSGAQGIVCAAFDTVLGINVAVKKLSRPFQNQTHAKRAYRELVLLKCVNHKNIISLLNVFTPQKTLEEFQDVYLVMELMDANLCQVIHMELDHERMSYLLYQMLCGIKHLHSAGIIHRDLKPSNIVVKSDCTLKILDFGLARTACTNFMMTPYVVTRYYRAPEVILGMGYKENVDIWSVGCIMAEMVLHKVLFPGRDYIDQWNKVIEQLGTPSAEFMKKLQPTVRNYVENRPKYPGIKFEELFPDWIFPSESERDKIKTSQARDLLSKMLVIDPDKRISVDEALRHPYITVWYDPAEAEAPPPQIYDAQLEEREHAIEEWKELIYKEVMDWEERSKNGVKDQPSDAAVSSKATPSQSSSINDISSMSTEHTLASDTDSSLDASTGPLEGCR

## CCCCCCCc1[nH]c2ccccc2c(=O)c1O
HT-22 [1]
  Activity: Active
HT-22 [2]
  Activity: inactive
HT-22 [3]
  inhibition: Active
HT-22 [4]
  inhibition: Active
HT-22 [5]
  inhibition: Dose-Dependent Effect
[6]
  inhibition: Active
HT-22 [7]
  inhibition: Active
[8]
  inhibition: Active
HT-22 [9]
  inhibition: Active
HT-22 [10]
  inhibition: Active
HT-22 [11]
  inhibition: Active
HT-22 [12]
  Activity: 55.26%
HT-22 [13]
  Activity: 5.51%
HT-22 [14]
  Activity: 1.74%
HT-22 [15]
  Activity: 0.44%
HT-22 [16]
  Activity: 1.06%
HT-22 [17]
  Activity: 0.44%
HT-22 [18]
  viability at 1.85 µM: 98.1%
HT-22 [19]
  viability at 0.2 µM: 37.5%
HT-22 [20]
  Activity: Active
HT-22 [21]
  Activity: Active
HT-22 [22]
  Activity: inactive
RGC-5
  Activity: Active
[23]
  Activity: Dose-Dependent Effect
[24]
  fold change (FC): 0.98
HT-22 [25]
  inhibition: Active
